Experimental data reported in US7560466B2, “Methods of treating or preventing autoimmune diseases with 2,4-pyrimidinediamine compounds” (Rigel Pharmaceuticals, Inc., priority 2003, dated 2009).
Counter-ions that a name gives are not always drawn. Like-named read-outs stand apart in the source and are kept apart here. Values belong to the compound of their own block, whether it stands above or below them.

How the values were obtained:
Syk kinase = molecular target: T1, Syk kinase (Homo sapiens, UniProt P43405); assay: Syk kinase biochemical fluorescence polarization assay; settings: isolated Syk kinase, 11pt, read-out: fp_syk, 11pt
T1 construct: purchased Upstate, Lake Placid N.Y
Description: Many of the 2,4-pyrimidinediamine compounds were tested for the ability to inhibit Syk kinase catalyzed phosphorylation of a peptide substrate in a biochemical fluorescenced polarization assay with isolated Syk kinase. In this experiment, Compounds were diluted to 1% DMSO in kinase buffer (20 mM HEPES, pH 7.4, 5 mM MgCl2, 2 mM MnCl2, 1 mM DTT, 0.1 mg/mL acetylated Bovine Gamma Globulin). Compound in 1% DMSO (0.2% DMSO final) was mixed with ATP/substrate solution at room temperature. Syk kinase (Upstate, Lake Placid N.Y.) was added to a final reaction volume of 20 uL, and the reaction was incubated for 30 minutes at room temperature. […] EDTA (10 mM final)/anti-phosphotyrosine antibody (1× final)/fluorescent phosphopeptide tracer (0.5× final) was added in FP Dilution Buffer to stop the reaction for a total volume of 40 uL according to manufacturer's instructions (PanVera Corporation) The plate was incubated for 30 minutes in the dark at room temperature. Plates were read on a Polarion fluorescence polarization plate reader (Tecan). Data were converted to amount of phosphopeptide present using a calibration curve generated by competition with the phosphopeptide competitor provided in the Tyrosine Kinase Assay Kit, Green (PanVera Corporation).
In Tabe 1, all reported values are IC50s (in μM).

[1] = tested on: cultured human mast cells (CHMC), IgE-induced degranulation; assay: CHMC low cell density IgE activation: tryptase assay; type: cell-based
In short: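 Cord-blood CD34+-derived mucosal mast cells (SCF/IL-6 medium), 1000–1500 cells/well, preincubated with compound 1 h at 37°C, then anti-IgE stimulated 30 min at 37°C.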

[2] = tested on: cultured human mast cells (CHMC), ionomycin-induced degranulation; assay: CHMC low cell density ionomycin activation: tryptase assay; type: cell-based; settings: read-out: LD Tryptase, CHMC, Iono, 3pt
[3] = low cell density CHMC, 3-point, read-out: LD Tryptase, CHMC, IgE, 3pt
[4] = low cell density CHMC, 8-point, read-out: LD Tryptase, CHMC, IgE, 8pt
[5] = low cell density CHMC, ionomycin activation, 3-point
[6] = low cell density CHMC, 3pt, read-out: LD Tryptase, CHMC, IgE, 3pt
[7] = low cell density CHMC, 8pt, read-out: LD Tryptase, CHMC, IgE, 8pt
[8] = low cell density CHMC, ionomycin activation, 3pt
[9] = CHMC low cell density, 3pt, read-out: LD Tryptase, CHMC, IgE, 3pt
[10] = CHMC low cell density, 8pt, read-out: LD Tryptase, CHMC, IgE, 8pt
[11] = CHMC low cell density, ionomycin activation, 3pt
[12] = low cell density CHMC, ionomycin activation (2 μM final), 3pt

Compound: Cc1nc2cc(Nc3ncc(F)c(Nc4ccc5c(n4)NC(=O)C(C)(C)O5)n3)ccc2n1C [Compound 898, N2-(1,2-Dimethylbenzimidazol-5-yl)-N4-(2,2-dimethyl-3-oxo-4H-5-pyrid[1,4]oxazin-6-yl)-5-Fluoro-2,4-pyrimidinediamine]
- IC50 (Syk kinase): < 10 µM

Compound: Cc1nc2ccc(Nc3ncc(F)c(Nc4ccc5c(c4)NC(=O)C(C)S5(=O)=O)n3)cc2[nH]1 (centres unmarked) [Compound 909]
- IC50 (Syk kinase): < 10 µM

Compound: COc1cc(Nc2ncc(F)c(Nc3ccc4c(c3)NC(=O)C(C)(C)O4)n2)cc(OC)c1OC [Compound 543]
- IC50 (Syk kinase): < 10 µM

Compound: CNC(=O)COc1cccc(Nc2ncc(F)c(Nc3ccc4c(c3)NCCS4)n2)c1 [Compound 258, N4-(3,4-Dihydro-2H,4H-benzo[1,4]thiazin-6-yl)-5-fluoro-N2-[3-(N-methylamino)carbonylmethyleneoxyphenyl]-2,4-pyrimidinediamine]
- IC50 [1, 6]: < 10 µM
- IC50 [1, 7]: < 10 µM
- IC50 [2, 8]: > 10 µM

Compound: Cn1ncc2ccc(Nc3ncc(F)c(Nc4ccc5c(n4)NC(=O)C(C)(C)O5)n3)cc21 [Compound 1057, N4-(2,2-Dimethyl-3-oxo-4H-5-pyrid[1,4]oxazin-6-yl)-5-fluoro-N2-[1-methylindazol-6-yl]-2,4-pyrimidinediamine p-Toluenesulfonic Acid Salt]
- IC50 [1, 3]: < 10 µM
- IC50 [1, 4]: < 10 µM
- IC50 [2, 5]: > 10 µM

Compound: CC1(C)Oc2ccc(Nc3nc(Nc4ccc5c(cnn5CCCNS(C)(=O)=O)c4)ncc3F)nc2NC1=O [Compound 836, N4-(2,2-Dimethyl-3-oxo-4H-5-pyrid[1,4]oxazin-6-yl)-5-fluoro-N2-[1-[3-(N-methylsulfonylamino)propyl]indazol-5-yl]-2,4-pyrimidinediamine]
- IC50 [1, 9]: < 10 µM
- IC50 [1, 10]: < 10 µM
- IC50 [2, 11]: > 10 µM

Compound: CC1(C)COc2ccc(Nc3nc(Nc4cccc(-c5cnco5)c4)ncc3F)cc2N1 [Compound 233, N4-(3,4-Dihydro-3,3-dimethyl-2H,4H-benz[1,4]oxazin-6-yl)-5-fluoro-N2-[3-(oxazol-5-yl)phenyl]-2,4-pyrimidinediamine]
- IC50 [1, 6]: < 10 µM
- IC50 [1, 7]: < 10 µM
- IC50 [2, 8]: > 10 µM

Compound: N2-(Bis-2-hydroxyethyl)-N4-(3,4-ethylenedioxyphenyl)-5-fluoro-N4-methyl-2,4-pyrimidinediamine [Compound 492]
- IC50 [1, 9]: > 10 µM
- IC50 [2, 11]: > 10 µM

Compound: CC1(C)COc2ccc(Nc3nc(Nc4cccc(-c5ncco5)c4)ncc3F)cc2N1 [Compound 218, N4-(3,4-Dihydro-3,3-dimethyl-2H,4H-benz[1,4]oxazin-6-yl)-5-fluoro-N2-[3-(oxazol-2-yl)phenyl]-2,4-pyrimidinediamine]
- IC50 [1, 6]: < 10 µM
- IC50 [1, 7]: < 10 µM
- IC50 [2, 8]: > 10 µM

Compound: CC(C)(C)OC(=O)NCC(=O)NCc1ccc(Nc2ncc(F)c(Nc3ccc4c(c3)NC(=O)C(F)(F)O4)n2)cc1 [Compound 1309, N2-[4-[1-(tert-Butoxycarbonylamino)methylenecarbonylamino]methylphenyl]-N4-(2,2-difluoro-3-oxo-4H-benz[1,4]oxazin-6-yl)-5-fluoro-2,4-pyrimidinediamine]
- IC50 [1, 6]: < 10 µM
- IC50 [1, 7]: < 10 µM
- IC50 [2, 12]: > 10 µM

Compound: NC(=S)c1cccc(Nc2ncc(F)c(Nc3ccc4c(c3)NC(=O)C(CCO)O4)n2)c1 (centres unmarked) [Compound 262, N2-(3-Benzothioamide)-5-fluoro-N4-[2-(2-hydroxyethyl)-3-oxo-2H,4H-benz[1,4]oxazin-6-yl]-2,4-pyrimidinediamine]
- IC50 [1, 6]: < 10 µM
- IC50 [2, 8]: > 10 µM

Compound: Fc1cnc(Nc2cccc(-c3ncco3)c2)nc1Nc1ccc2c(c1)NCCO2 [Compound 217, N4-(3,4-Dihydro-2H,4H-benz[1,4]oxazin-6-yl)-5-fluoro-N2-[3-(oxazol-2-yl)phenyl]-2,4-pyrimidinediamine]
- IC50 [1, 6]: < 10 µM
- IC50 [1, 7]: < 10 µM
- IC50 [2, 8]: > 10 µM

Compound: CNC(=O)COc1c(C)cc(Nc2ncc(F)c(N(C)c3ccc4c(c3)OC(F)(F)C(F)(F)O4)n2)cc1C [Compound 636, N2-[3,5-Dimethyl-4-(N-methylamino)carbonylmethyleneoxyphenyl]-5-fluoro-N4-methyl-N4-[3,4-(tetrafluoroethylenedioxy)phenyl]-2,4-pyrimidinediamine]
- IC50 [1, 9]: < 10 µM
- IC50 [1, 10]: < 10 µM
- IC50 [2, 11]: < 10 µM

Compound: CNC(=O)c1cc(Nc2ncc(F)c(N(C)c3ccc4c(c3)OCCO4)n2)ccc1Cl [Compound 453, N2-[4-Chloro-3-(N-methylamino)carbonylphenyl]-N4-(3,4-ethylenedioxyphenyl)-5-fluoro-N4-methyl-4-pyrimidinediamine]
- IC50 [1, 9]: < 10 µM
- IC50 [2, 11]: > 10 µM

Compound: CC1(C)COc2ccc(Nc3nc(Nc4ccc(-c5ncco5)cc4)ncc3F)cc2N1 [Compound 238, N4-(3,4-Dihydro-3,3-dimethyl-2H,4H-benz[1,4]oxazin-6-yl)-5-fluoro-N2-[4-(oxazol-2-yl)phenyl]-2,4-pyrimidinediamine]
- IC50 [1, 6]: < 10 µM
- IC50 [1, 7]: < 10 µM
- IC50 [2, 8]: > 10 µM

Compound: CC(C)(C)OC(=O)NCC(=O)NCc1ccc(Nc2ncc(F)c(Nc3ccc4c(c3)NC(=O)C(C)(C)O4)n2)cc1 [Compound 1307, N2-[4-[1-(tert-Butoxycarbonylamino)methylenecarbonylamino]methylphenyl]-N4-(2,2-dimethyl-3-oxo-4H-benz[1,4]oxazin-6-yl)-5-fluoro-2,4-pyrimidinediamine]
- IC50 [1, 6]: < 10 µM
- IC50 [1, 7]: < 10 µM
- IC50 [2, 12]: < 10 µM

Compound: C[C@@H]1Oc2ccc(Nc3nc(Nc4ccc(-c5cnco5)cc4)ncc3F)cc2NC1=O [Compound 225]
- IC50 [1, 6]: < 10 µM
- IC50 [1, 7]: < 10 µM
- IC50 [2, 8]: > 10 µM

The next lines start with the values.

- IC50 [1, 3]: < 10 µM
- IC50 [1, 4]: < 10 µM
- IC50 [2, 5]: < 10 µM
Compound: CNC(=O)COc1c(C)cc(Nc2ncc(F)c(Nc3ccc4c(n3)NC(=O)C(C)(C)O4)n2)cc1C [Compound 1041, N2-[3,5-Dimethyl-4-(N-methylamino)carbonylmethyleneoxyphenyl]-N4-(2,2-dimethyl-3-oxo-4H-5-pyrid[1,4]oxazin-6-yl)-5-fluoro-2,4-pyrimidinediamine]

- IC50 [1, 4]: > 10 µM
- IC50 [2, 5]: < 10 µM
Compound: Cc1cc(Nc2ncc(F)c(Nc3ccc4c(n3)NC(=O)C(C)(C)O4)n2)cc(Cl)c1OC(C)C [Compound 1040, N2-(3-Chloro-4-isopropoxy-5-methylphenyl)-N4-(2,2-dimethyl-3-oxo-4H-5-pyrid[1,4]oxazin-6-yl)-5-fluoro-2,4-pyrimidinediamine]

- IC50 [1, 6]: < 10 µM
- IC50 [2, 12]: > 10 µM
Compound: COc1ccc(Nc2ncc(F)c(Nc3ccc4c(n3)NCCO4)n2)cc1Cl [Compound 1146, N2-(3-Chloro-4-methoxyphenyl)-N4-(3,4-dihydro-2H,4H-5-pyrid[1,4]oxazin-6-yl)-5-fluoro-2,4-pyrimidinediamine]

- IC50 [1, 3]: < 10 µM
- IC50 [1, 4]: < 10 µM
- IC50 [2, 5]: > 10 µM
Compound: CNC(=O)c1ccc(Nc2ncc(F)c(Nc3ccc4c(n3)NC(=O)C(C)(C)O4)n2)cc1Cl [Compound 1054, N2-[3-Chloro-4-(N-methylamino)carbonylphenyl]-N4-(2,2-dimethyl-3-oxo-4H-5-pyrid[1,4]oxazin-6-yl)-5-fluoro-2,4-pyrimidinediamine]

- IC50 [1, 6]: < 10 µM
- IC50 [1, 7]: < 10 µM
- IC50 [2, 12]: > 10 µM
Compound: CNC(=O)CNC(=O)c1ccc(Nc2ncc(F)c(Nc3ccc4c(c3)NC(=O)C(C)(C)O4)n2)cc1 [Compound 1295, N4-(2,2-Dimethyl-3-oxo-4H-benz[1,4]oxazin-6-yl)-5-fluaro-N2-[4-[N-(N-methylamino)carbonylmethylene]aminocarbonylphenyl]-2,4-pyrimidinediamine]

- IC50 [1, 6]: < 10 µM
- IC50 [1, 7]: < 10 µM
- IC50 [2, 12]: > 10 µM
Compound: CNC(=O)CNC(=O)c1ccc(Nc2ncc(F)c(Nc3ccc4c(c3)NC(=O)[C@H](C)O4)n2)cc1 [Compound 1296, (S)-5-Fluoro-N2-[4-[N-(N-methylamino)carbonylmethylene]aminocarbonylphenyl]-N4-(2-methyl-3-oxo-2H,4H-benz[1,4]oxazin-6-yl)-2,4-pyrimidinediamine]

- IC50 [1, 9]: < 10 µM
- IC50 [2, 11]: > 10 µM
Compound: CCOc1c(C)cc(Nc2ncc(F)c(Nc3ccc4c(n3)NC(=O)C(C)(C)O4)n2)cc1Cl [Compound 1010, N2-(3-Chloro-4-ethoxy-5-methylphenyl)-N4-(2,2-dimethyl-3-oxo-4H-5-pyrid[1,4]oxazin-6-yl)-5-fluoro-2,4-pyrimidinediamine]

- IC50 [1, 4]: < 10 µM
- IC50 [2, 5]: > 10 µM
Compound: Fc1cnc(Nc2ccc(N3CCOCC3)cc2)nc1Nc1ccc2c(n1)NCCO2 [Compound 1128, N4-(3,4-Dihydro-2H,4H-5-pyrid[1,4]oxazin-6-yl)-5-fluoro-N2-(4-morpholinophenyl)-2,4-pyrimidinediamine]
